One data set deals with A10 cells. In words: Cell cycle analysis using flow cytometry and BUdR staining. The class given is cell-based. The protocol:
Cell cycle analysis was performed using flow cytometry and BUdR staining. In FIG. 3, “Con” represents untreated, control cells. All other cell cultures were treated with nocodazole, which interferes with microtubule polymerization and blocks the cell cycle during M phase. […] Because A10 cells reside primarily in the cell cycle checkpoint between G0 and G1 (See “Con” in FIG. 3), evaluating the possibility that a pharmacologic agent inhibits transit out of that phase is not as straightforward as determining blockade at other cell cycle checkpoints. Therefore, cell cultures were treated for 24 hours with T channel calcium channel blockers mibefradil (mib), nickel (Ni) or TTL-1177 (a proprietary compound owned by the assignee Tau Therapeutics), before adding nocodazole. Absent an effect on the T channel blockers, cells would be locked at the cell cycle checkpoint between G2 and M by nocodazole as happened with cells treated with it alone.
On the technique in general: In flow cytometry, cells or beads pass a laser one at a time.

Another data set relates to PANC 219 tumor. The class given is in vivo. The conditions noted are these: mibefradil 65 mg/kg p.o. b.i.d. On the procedure:
Pancreatic cancers resected from patients were immediately transplanted into the flanks of nude mice and maintained by serial, in vivo passage. Transplanted tumors were implanted at a volume of about 100 mm^3 and allowed to grow to 200 to 300 mm^3 before initiation of treatment. Mice bearing the PANC 219 tumor were either left untreated or treated with mibefradil at 65 mg/kg p.o. b.i.d. (n=10 in each group). Tumor growth was normalized to the size measured at the start of treatment.

In data set [1] the test system is D54 tumors. In words: Interlaced therapy, human glioblastoma murine xenograft model (Example 4). The class given is in vivo, Mice. The protocol: Studies of interlaced therapy for human glioblastoma in a murine xenograft model using the D54 cell line were conducted. Mice bearing subcutaneous implants of D54 tumors, which were allowed to become established at a volume of about 100 mm^3, were treated with mibefradil at 40 mg/kg p.o. q.i.d. for 7 days or left untreated. On day seven, all animals received the S phase cytotoxin temozolamide at a dose of 25% of the LD10 over five days. Following two days of no treatment, mibefradil was re-started at a dose of 35 mg/kg p.o. q.i.d. in the group of mice which were originally treated with mibefradil. On day 20, the mean tumor volume in the temozolamide only group of mice was 173 mm^3 as compared to the temozolamide plus mibefradil group of mice, whose mean tumor volume was 102 mm^3 (p=0.0485; n=10/group; Student's pooled, two tailed t-test). A pooled, two tailed. Student's t-test over all seven tumor volume measurements yielded p=0.0329. There were no animals that were euthanized in either group due to tumor size. The mean volume in the control group, which received no intervention, was 1214 mm^3 with three animals euthanized because of tumor size.
On the technique in general: Xenograft models place foreign cells or tissue in a host animal.

The test system of data set [2] is D54 tumors. In words: Interlaced therapy, human glioblastoma murine xenograft model, two cytotoxin rounds (Example 5). The class given is in vivo, Mice. The conditions noted are these: over 30 days; subcutaneous D54; temozolamide 25% then 10% of LD10; mibefradil 40 then 35 mg/kg p.o. q.i.d.
Experimental: Further studies of interlaced therapy for human glioblastoma in a murine xenograft model using the D54 cell line were conducted. Mice bearing subcutaneous implants of D54 tumors, which were allowed to become established, were treated with mibefradil at 40 mg/kg p.o. q.i.d. for 7 days or left untreated. On day seven, all animals received the S phase cytotoxin temozolamide at a dose of 25% of the LD10 over five days. Following two days of no treatment, mibefradil was re-started at a dose of 35 mg/kg p.o. q.i.d. in the group of mice which were originally treated with mibefradil.
The mark [3] stands for this setting: A10 cells treated 24 hours with T channel blocker before adding nocodazole.

For `COCC(=O)O[C@]1(CCN(C)CCCc2nc3ccccc3[nH]2)CCc2cc(F)ccc2[C@@H]1C(C)C` [mibefradil], in the data set with A10 cells (setting [3]), the “effect on cell cycle transit” value is “arrested cells at the cell cycle checkpoint between G0 and G1”. In addition, the tumor regression result with PANC 219 tumor (PANC 219 tumor in nude mice) is given as “did not cause tumor regression”. The tumor growth result in the data set with PANC 219 tumor (PANC 219 tumor, growth normalized to size at start of treatment) is “controlled tumor growth”. The “deaths in treatment group” value in the data set with PANC 219 tumor (n=10, day 9) is “One mouse in the treatment group died”.
As to `[Ni]` [nickel], the “effect on cell cycle transit” value in the data set on A10 cells (setting [3]) is “arrested cells at the cell cycle checkpoint between G0 and G1”.
Regarding `COC(=O)Nc1nc2ccc(C(=O)c3cccs3)cc2[nH]1` [nocodazole], in the data set on A10 cells (A10 cells, nocodazole alone), the “effect on cell cycle transit” value is listed as “blocked cell cycle transit through M phase”.
With `Cn1nnc2c(C(N)=O)ncn2c1=O` [temozolamide], the mean tumor volume in the data set with D54 tumors [1] (day 20, subcutaneous D54, temozolamide 25% of LD10 over five days, mibefradil 40 then 35 mg/kg p.o. q.i.d., n=10/group) was determined as 173 mm^3; in the data set with D54 tumors [2], 156±65 mm^3. Besides, the “animals euthanized due to tumor size” value in the data set with D54 tumors [1] (subcutaneous D54, n=10/group) was “no animals”.

These data come from US20120088807A1, “INTERLACED METHOD FOR TREATING CANCER OR A PRECANCEROUS CONDITION” (TAU THERAPEUTICS LLC, priority 2009, published 2012).
